pIC50: −log10 of the molar value. Read-outs that look alike come from different tables or passages of the source.
What was measured:
[1] = test system: FLAG-tagged PRMT1 or His-tagged PRMT1; test: Radioactive in vitro methyltransferase assay, autoradiography (core histones or GST-GAR); assay type: biochemical, rat, human; conditions: 100 μM compound, [14C]-methyl-SAM, vs DMSO-treated control
From the text: Given that the effects of the PRMT1 activators had been screened and quantified so far using the F-PRMT assay, we next assessed the efficacy of the selected compounds in stimulating PRMT1-mediated methylation of natural substrates. To this end, we conducted in vitro methyltransferase assays using recombinant PRMT1 and core histones or GST-tagged GAR (glycine-arginine-rich domain of fibrillarin) as substrates of PRMT1. , Addition of the cofactor [^14C]-methyl-SAM allowed for the visualization of radiolabeled methyl group incorporation into the substrate proteins by SDS-PAGE and autoradiography or by liquid scintillation counting. […] It is important to note that PRMT1 methylates both H2A and H4, albeit with variable efficiency. […] As a result, the methylation signals of both histones were considered in the quantification process (Figure A, B).
As negative control (Ctrl (−)), PRMT1 enzymes and [^14C-methyl]-SAM were incubated without substrates. Subsequently, samples were separated by SDS-PAGE, blotted, and analyzed by autoradiography. Substrates (H2A, H4 or GST-GAR) and molecular weights (kDa) of the protein marker are indicated. Black lines designate composite images, assembled from the same blots and exposure times. The methylation signals of the substrates were densitometrically quantified, and expressed relative to the DMSO-treated control, as indicated by the numbers below the autoradiographs. Representative results are depicted, with quantification graphs (below the autoradiographs in A and B) summarizing biological replicates. […] Subsequently, GST-GAR was immobilized on glutathione-beads and PRMT1 activity was measured by quantifying the incorporation of ^14C-methyl groups (in cpm) using liquid scintillation counting. […] Cell viability was quantified using the CellTiter-Glo assay. Viability of compound-treated cells is shown in % relative to the viability of solvent-treated cells, which was set to 100% (mean ± SD, n = 3), and then plotted against the logarithm of the compound concentrations. Concentration-viability curves were fitted by nonlinear regression, with the half-maximal inhibitory concentration (IC50) of the compounds for PANC-1 cell viability and the coefficient of determination (R^2) indicated. […] Subsequently, whole-cell extracts were prepared and analyzed by Western blot using antibodies against ADMA, ACTIN (ACT), and VINCULIN (VINC), of which the latter two stainings served as loading controls. Molecular weights (kDa) of the protein marker are indicated. All the ADMA signals per lane were densitometrically quantified, normalized to the signal of the respective loading control and expressed relative to the DMSO-treated control, as indicated by the numbers below the immunostainings. […]

PANC-1 cells = test: Cell viability, CellTiter-Glo assay, PANC-1; assay type: cell-based, human; conditions: n = 3, read-out: half-maximal inhibitory concentration (IC50) for PANC-1 cell viability
Protocol: As negative control (Ctrl (−)), PRMT1 enzymes and [^14C-methyl]-SAM were incubated without substrates. Subsequently, samples were separated by SDS-PAGE, blotted, and analyzed by autoradiography. Substrates (H2A, H4 or GST-GAR) and molecular weights (kDa) of the protein marker are indicated. Black lines designate composite images, assembled from the same blots and exposure times. The methylation signals of the substrates were densitometrically quantified, and expressed relative to the DMSO-treated control, as indicated by the numbers below the autoradiographs. Representative results are depicted, with quantification graphs (below the autoradiographs in A and B) summarizing biological replicates. […] Subsequently, GST-GAR was immobilized on glutathione-beads and PRMT1 activity was measured by quantifying the incorporation of ^14C-methyl groups (in cpm) using liquid scintillation counting. […] Cell viability was quantified using the CellTiter-Glo assay. Viability of compound-treated cells is shown in % relative to the viability of solvent-treated cells, which was set to 100% (mean ± SD, n = 3), and then plotted against the logarithm of the compound concentrations. Concentration-viability curves were fitted by nonlinear regression, with the half-maximal inhibitory concentration (IC50) of the compounds for PANC-1 cell viability and the coefficient of determination (R^2) indicated. […] Subsequently, whole-cell extracts were prepared and analyzed by Western blot using antibodies against ADMA, ACTIN (ACT), and VINCULIN (VINC), of which the latter two stainings served as loading controls. Molecular weights (kDa) of the protein marker are indicated. All the ADMA signals per lane were densitometrically quantified, normalized to the signal of the respective loading control and expressed relative to the DMSO-treated control, as indicated by the numbers below the immunostainings.
Cell viability was assessed using the CellTiter-Glo assay (Promega) according to the manufacturer’s instructions. Briefly, PANC-1 and PaTu8988T cells were seeded as triplicates in 96 well plates (5 × 10^3 cells/well) and allowed to adhere for 3–4 h, followed by treatment with the compounds at 11–12 concentrations spanning 0.028–120 μM for 96 h, with DMSO (solvent) treated cells serving as control. Subsequently, cell viability was quantified by measuring luminescence on a microplate reader, and the signal of compound-treated cells was normalized to the signal of the solvent-treated control, which was set to 100%. Cell viability in % was plotted against the logarithm of the compound concentration, and concentration-response curves were fitted by nonlinear regression using a three-parameter logistic model to determine half-maximal inhibitory concentrations (IC50).

Molecule	PRMT1 methylation activity toward histones H2A and H4 and GAR, autoradiography [1]	pIC50 (PANC-1 cells; Homo sapiens, PANC-1, 96 h)	pIC50 (PANC-1 cells; 96 h)
CCN(CC)Cc1cccc(N/C=C2\C(=O)NC(=O)c3ccccc32)c1.Cl [TR-036, (Z )-N-(3-{[(1,3-Dioxo-2,3-dihydroisoquinoline-4(1 H )-ylidene)methyl]amino}benzyl)-N -ethylethanaminium chloride]	increased	4.49	
(Z)-2-(2-{[(1,3-Dioxo-2,3-dihydroisoquinolin-4(1H)-ylidene)methyl]amino}phenyl)-N,N-dimethylethan-1-aminium chloride [ICTR-059]	increased		4.72
CN(C)Cc1cccc(-c2ccc3[nH]c(=O)c4ccccc4c3c2)c1 [TR-033, 2-{3-[(Dimethylamino)methyl]phenyl}phenanthridin-6(5H)-One]	increased	5.00	
CN(C)Cc1cccc(CN/C=C2\C(=O)NC(=O)c3ccccc32)c1.Cl [TR-07, (Z)-1-[3-({[(1,3-Dioxo-2,3-dihydroisoquinolin-4(1H)-lidene)methyl]amino}methyl)phenyl]-N,N-dimethylmethanaminium chloride]	increased	4.35	

Source: paper PMC13576449, “Small-Molecule Activators of PRMT1: Discovery, SAR Analyses, and Proapoptotic Effects in Pancreatic Cancer Cells” (Journal of Medicinal Chemistry, 2026)
